Test results as given in a melting point compilation (Tetko et al.; mined from patent text by program, amines drawn as free bases though some values may be those of a salt).

melting point [°C]	SMILES
170 to 172	COc1ccc(N2C(=O)N(c3cccc(C#N)c3)c3nc(Nc4cccc(CCOC(C)=O)c4)ncc3C2C)cc1 (stereo not drawn)
146 to 147	O=C(O)CCCNC(=O)n1cc(F)c(=O)[nH]c1=O
132 to 133	CC(C)(C)C(O)(CNc1ccc(Cl)c(Cl)c1)Cn1cncn1 (stereo not drawn)
148 to 150	Cc1cc(C)nc(NC(=O)NS(=O)(=O)c2ccccc2C2(O)CCC2)n1
191 to 193	Cc1cccc(NC(=O)C=Cc2cn(C)nc2[N+](=O)[O-])n1
230 to 232	FC(F)(F)c1cccc(-c2cnnn2-c2cc(Cl)ccc2-c2nnn[nH]2)c1
108 to 110	FC(F)(F)Oc1ccc(-c2cc(-n3ccc(C(F)(F)F)n3)c3ccccc3n2)cc1
125 to 127	O=S(=O)(Cc1noc(-c2ccccc2)n1)c1ccc(CCNCC(O)c2ccc(OC(F)(F)F)cc2)cc1 (stereo not drawn)
133 to 134	CCOC(=O)c1cnc(-c2cc3cccc(NS(=O)(=O)c4cccs4)c3n2COC)s1
177 to 178	O=C(O)COc1cc(O)c2c(c1)NC1(CCCCC1)CC2=O
134 to 135	Fc1ccc(-c2ccnc(Nc3ccc4c(c3)OCCO4)c2)cc1
136 to 138	Cc1c(C=O)cc(-c2ccc(S(C)(=O)=O)cc2)n1-c1ccc(F)cc1
158 to 160	CCOC(=O)CSCc1nc(NCc2ccc(OC)c(Cl)c2)c2c3c(sc2n1)CCCC3
184 to 185	COC(=O)c1ccc(=O)n(CCNC(=O)c2ccc(C)nc2)c1
> 200	Nc1ncnc(N2CCc3ccccc3CC2)c1[N+](=O)[O-]
175 to 176	O=C(OCCc1ccccc1)c1ccc2cc(O)c(O)cc2c1
250	COc1ccc2c(c1)c(=O)[nH]c1c2c2ccccc2n1C
101 to 103	CCc1cccc2c1S(=O)(=O)c1ccccc1O2

melting point [°C]	SMILES
138 to 139	Cc1ncc([N+](=O)[O-])cc1C(=O)NC(=O)C(C)(C)C
140	COCc1ccc2c(c1)C=Cc1cc(C)ccc1C2c1cn(Cc2nc(C(=O)O)cs2)c(=O)[nH]c1=S (stereo not drawn)
94	CCCCc1c(-c2cccnn2)ssc1=S
100 to 101	CN(C)C=CC(=O)c1ccc2ccccc2c1
300 to 305	N#Cc1cnc2cc(-c3ccc(C=O)cc3)sc2c1Cl
173 to 174	COc1ccc(OC)c2c1C[C@](O)(CC#N)CC21SCCS1
284	Cn1c(=O)c(-c2ccc(Cl)cc2Cl)cc2c3cc(C=O)ccc3n(C)c21
245 to 247	O=C1c2cc(O)ccc2OCC1n1ccnc1 (stereo not drawn)
47	O=C(CBr)Cc1c(F)cccc1Cl
116 to 117	Fc1ccc2c(c1)[C@@H]1c3ccccc3N[C@@H]1C2 (relative stereo)
144 to 145	CCOCCC(Cc1ccc(NC(=O)NC(=O)c2ccc(C#N)cc2)cc1)C(=O)OC(C)(C)C (stereo not drawn)
218 to 220	CC(=O)N1N=C2C(=Cc3ccccc3)CS(=O)(=O)CC2C1c1ccccc1 (stereo not drawn)
225 to 227	NS(=O)(=O)c1cc2[nH]c(C(Cl)Cl)nc2cc1Cl
123	COc1ccc(CC2(C)CN(C(c3ccccc3)c3ccccc3)CCN2)cc1OC (stereo not drawn)
77 to 78	O=C(CC(=O)C1CC1)c1ccccn1
139 to 141	CN1CCN(C(=O)c2cccn2Cc2ccccc2N)CC1
93 to 95	O=C1c2ccccc2OCOc2ccccc21

The remaining lines, values behind:

SMILES	melting point [°C]
COCC(=O)NNC1=Nc2sc(Cl)cc2C(c2ccccc2[N+](=O)[O-])=NC1	198 to 200
CCCCCCCNC(=O)Nc1ccc(N(C)C)cc1C(=O)NCC1CC2CCC(C1)N2C(c1ccccc1)c1ccccc1 (stereo not drawn)	195
Fc1ccccc1C1CCN(Cc2ccccc2)CCN1Cc1ccccc1 (stereo not drawn)	82 to 83
C=CCOC(=O)CCCS(=O)C1CC(=O)N1CC(=O)NCCCCCCc1ccc(F)cc1 (stereo not drawn)	95 to 96
CCCCOP(=O)(CCCCC1(C(=O)NCCC)c2ccccc2-c2ncccc21)OCCCC (stereo not drawn)	93.5 to 96
O=C(O)CCCCN1CCN2c3ccccc3Cc3ccccc3C2C1 (stereo not drawn)	218 to 219
CCCCCCCCCCCCCc1cc(C(=O)OCC)c[nH]1	59.5 to 60.5
COc1nc(N)nc(-c2ccccc2)c1-c1ccc(=O)n(C)n1	218 to 220
COc1cc2c(cc1-c1c(C)nn(C)c1C)-c1c(-c3cccs3)c3c(n1CC2)C(=O)N(C(C)C)CCN(C(=O)C(C)C)C3	232 to 235
N[C@@H](Cc1ccc([N+](=O)[O-])cc1I)C(=O)O	> 200
O=C1c2cccc(OCc3ccccc3)c2C(=O)c2c(Cl)ccc(Cl)c21	122 to 126
O=C(O)c1cc(Oc2ccccc2)ccc1O	126 to 128
Cc1c(Nc2c(C#N)cnc3sccc23)ccc2[nH]ccc12	255
COC(=O)CCc1c(C=O)ccc2c1CCC(NS(=O)(=O)c1ccc(Cl)cc1)C2 (stereo not drawn)	110
CC1(C)CC(NC(=O)c2cc(C(C)(C)C)c(O)c(C(C)(C)C)c2)CC(C)(C)N1	256 to 258
CC1C(=O)NC2=NC=CCN21 (stereo not drawn)	212
Cc1c(-c2ccc(F)cc2)oc2c(-c3ccc(S(C)(=O)=O)cc3)c(-c3ccc(F)cc3)nn12	289 to 291
O=C(NCc1ccc(Cl)cc1)c1n[nH]c2ncc(I)cc2c1=O	> 300
OCCOc1cccc2cnccc12	64 to 67

SMILES	melting point [°C]
CCCc1c(OCCCCCCC#N)ccc(C(C)=O)c1O	64 to 66
CC(=O)OC1CCC2(C)C(=CCC3C2CCC2(C)C(c4cccnc4)=CCC32)C1 (stereo not drawn)	144 to 145
O=C(O)CCc1c(Sc2ccccc2)c2cc(F)ccc2n1Cc1ccc(Cl)cc1	138 to 139
CCCCCCCCCCC1C(=O)NC(=O)NC1=O	190
CN(C(=O)CN(O)C(N)=O)c1cccc(Oc2ccccc2)c1	110 to 112
CC(=Cc1ccc(N(C)C)cc1)C(=O)O	190 to 194
COC(c1cc(C)c(OCC(=O)O)c(C)c1)(C(F)(F)F)C(F)(F)F	105 to 108
CCOC(=O)c1cnc2c3c(ccc2c1)C(=O)CC=N3	250 to 252
CC(C)c1ccc(-c2ccc(/C=C/C(=O)O)s2)cc1	216 to 219
CCCc1nc2cnc3ccc([N+](=O)[O-])cc3c2s1	228 to 230
CC1(c2ccccc2)OC(C=Cc2ccccn2)=CC1=O (stereo not drawn)	74.5 to 76
O=C(NCc1ccccn1)Nc1cc(N2CC(CCc3ccccc3)OC2=O)ccn1 (stereo not drawn)	194 to 195
CCCOC(=O)c1cnc(S)n1C(c1ccccc1)c1ccccc1	133
CC(C)(C(CC(=O)c1ccccc1)c1cccnc1)[N+](=O)[O-] (stereo not drawn)	134 to 135
OC[C@@H](O)[C@@H]1OC[C@H](O)[C@H]1O (racemic)	69.5 to 71
O=C(O)[C@@H]1O[C@@H]1c1ccccc1	81.5 to 83
CCOC(=O)CC(=O)c1cc(F)c(F)c(C)c1F	38 to 39
CCOC(=O)c1ncn2c1cnc1ccccc12	195 to 196
CCCCC1(CCCC)CS(=O)(=O)c2ccc(N(C)C)cc2C(c2ccc(OCc3ccc(CN(CC(=O)O)CC(=O)O)cc3)cc2)C1O (stereo not drawn)	175
